Article PMC11509018, “Evaluation of the Role of Tanshinone I in an In Vitro System of Charcot-Marie-Tooth Disease Type 2N” (International Journal of Molecular Sciences, 2024)
Structures can show the parent of a compound that is named as a salt.

Assays:
AlaRS^R329H [1] = biological target: T1, AlaRS^R329H (Homo sapiens, UniProt P49588, R329H); assay: Thermal shift assay (TSA); assay type: binding; settings: positive hit = shift of more than 2.5 °C
T1 construct: made in house; host or cells: E. coli BL21 (DE3), pET-21a
T1 sequence (P49588 1-968 R329H): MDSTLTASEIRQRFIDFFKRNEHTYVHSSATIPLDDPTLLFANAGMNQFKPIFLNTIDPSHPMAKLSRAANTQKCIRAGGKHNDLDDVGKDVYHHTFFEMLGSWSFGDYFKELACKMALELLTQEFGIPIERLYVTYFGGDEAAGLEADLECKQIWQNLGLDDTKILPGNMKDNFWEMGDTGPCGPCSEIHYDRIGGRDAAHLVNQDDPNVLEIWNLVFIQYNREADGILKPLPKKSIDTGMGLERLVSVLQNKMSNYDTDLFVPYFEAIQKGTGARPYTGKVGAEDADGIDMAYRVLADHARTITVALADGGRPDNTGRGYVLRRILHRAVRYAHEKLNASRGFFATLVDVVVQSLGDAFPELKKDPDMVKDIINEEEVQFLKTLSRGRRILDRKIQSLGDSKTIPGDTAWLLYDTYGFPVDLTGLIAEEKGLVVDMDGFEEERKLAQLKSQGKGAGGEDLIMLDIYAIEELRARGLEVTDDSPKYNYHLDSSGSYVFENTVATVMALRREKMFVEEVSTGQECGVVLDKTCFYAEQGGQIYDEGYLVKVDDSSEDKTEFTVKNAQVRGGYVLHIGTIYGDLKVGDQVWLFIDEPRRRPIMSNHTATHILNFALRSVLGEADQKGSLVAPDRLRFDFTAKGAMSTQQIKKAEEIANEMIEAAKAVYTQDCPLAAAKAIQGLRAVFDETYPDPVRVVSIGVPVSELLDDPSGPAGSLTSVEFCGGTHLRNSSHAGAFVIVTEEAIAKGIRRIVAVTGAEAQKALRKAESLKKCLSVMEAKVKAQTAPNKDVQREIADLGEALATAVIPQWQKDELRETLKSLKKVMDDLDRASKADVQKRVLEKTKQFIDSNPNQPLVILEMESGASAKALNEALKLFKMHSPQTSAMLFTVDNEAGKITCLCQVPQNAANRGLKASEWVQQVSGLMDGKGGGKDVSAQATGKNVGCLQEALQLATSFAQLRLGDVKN
From the text: In this assay, with increasing temperatures, the protein undergoes thermal unfolding, exposing its hydrophobic core. Subsequently, a fluorescent dye binds to these hydrophobic regions, becoming unquenched. Fluorescence is closely monitored, and the midpoint of the protein unfolding transition is designated as the Tm. Ligand binding frequently influences protein thermal stability during denaturation. Thus, the ligand binding affinity of any potential inhibitor can be gauged by evaluating the shift in the Tm. In this experiment, we screened a library of 2000 small molecules (Table S1) and classified as positive hits those that caused a shift in the Tm of the mutant protein of more than 2.5 °C. From the TSA, we identified four small molecules that met this criterion (Figure 2A, Table 1). Specifically, Atazanavir sulfate caused a shift of 4.0 °C, Tanshinone I a shift of 3.1 °C, Hederacolchiside A1 a shift of 4.3 °C, and Hexylresorcinol a shift of 5.5 °C (Figure 2B). To assess the impact of small molecules on the thermal stability of mutant proteins, thermal shift assays were performed using a […] (Applied Biosystems, Waltham, MA, USA) with the Protein Thermal Shift™ Kit dye (Thermo Fisher Scientific, Waltham, MA, USA). Each well of a 96-well Optical Reaction Plate (Applied Biosystems) contained 14 μL of thermal shift buffer, 2 μL of diluted thermal shift dye (8×), 2 μL of a 1 mM small molecule solution, and 2 μL of 1 mg/mL protein. Plates were incubated at 4 °C for 1 h before being heated from 25 °C to 95 °C at 1 °C/min. The fluorescence signal of SYPRO orange (excitation/emission: 490/530 nm) was recorded at 30 s intervals to monitor protein denaturation. The melting temperature (Tm), defined as the midpoint of the unfolding transition, was determined from the fluorescence–temperature curve. ΔTm was calculated as the difference in Tm between AlaRS^R329H treated with compounds and the control. Experiments were conducted in triplicate for accuracy. The experiment was repeated three times.

AlaRS^R329H [2] = biological target: T1, AlaRS^R329H; assay: Biolayer interferometry (BLI); assay type: binding; settings: immobilized AlaRS^R329H, 40, 20, 10, 5, 2.5 μM, mean ± SD, triplicate
From the text: To quantitatively analyze the binding affinity between the small molecules and the CMT mutant proteins, we performed BLI analysis on the selected candidates. BLI offers direct measurements of drug–protein binding kinetics, including key parameters such as the equilibrium dissociation constant (KD), association rate (Kon), and dissociation rate (Koff). This analysis provided key insights into the binding affinities of the four small molecules with the mutant protein AlaRS^R329H. […] To further quantify the binding of small molecules to mutant proteins, binding experiments with AlaRS^R329H proteins and small molecules were conducted using an Octet R8 system (ForteBio, Fremont, CA, USA). Purified His-tagged AlaRS^R329H proteins (500 μg/mL) were captured on Ni-NTA biosensors (ForteBio, Fremont, CA, USA), achieving a saturation response of 4–5 nm after 300 s. The biosensors were then transferred to Octet buffer (PBS with 0.01% Tween 20) for 180 s to remove loosely bound, nonspecific proteins and to establish a stable baseline. Following this, the sensors were immersed in diluted Tanshinone I (2.5–100 μM in assay buffer) for 120 s to record the association signal, and then transferred back into Octet buffer to monitor the dissociation signal for 120 s. Reference wells containing buffer instead of Tanshinone I were included to correct for baseline shifts. Additionally, a parallel set of Ni-NTA sensors in buffer served as negative reference controls to account for nonspecific binding of the compounds to the biosensor surface. The data were processed using a double reference subtraction protocol to eliminate nonspecific signals, background noise, and signal drifts caused by biosensor variability. All assays were performed in 96-well black plates with a total volume of 200 μL per well at 30 °C. Data analysis, including correction and curve fitting, was carried out using Octet® Analysis Studio 12.2.2.26. The experiment was repeated three times.

AlaRS^R329H [3] = biological target: T1, AlaRS^R329H; assay: ATP consumption assay (enzyme inhibition); assay type: biochemical; settings: 1 μM AlaRS^R329H at 20 μM compounds; vs DMSO control
Description: We further investigated the effects of the four small molecules on the enzymatic activity of the AlaRS^R329H protein using an ATP consumption assay. All four compounds affected enzymatic activity to varying degrees. […] The ATP consumption assay was used to evaluate the enzymatic inhibitory activity of the compounds. A 30 μL reaction mixture, containing 1 μM AlaRS mutants, 25 μM ATP, 50 μM L-alanine, 30 mM HEPES (pH 7.5), 150 mM NaCl, 30 mM KCl, 40 mM MgCl2, 0.1% BSA, and varying concentrations of Tanshinone I, was incubated at room temperature for 15 min. After incubation, 10 μL of the mixture was transferred to a 384-well microplate, and AlaRS mutant activity was measured by adding 10 μL of the ATP Assay Kit (#S0026, Beyotime, Shanghai, China). Luminescence was recorded using a Synergy HTX multimode microplate reader (BioTek Inc., Winooski, VT, USA). The inhibitory rate was calculated from three independent assays to ensure the accurate assessment of Tanshinone I’s inhibitory activity. The experiment was repeated three times.

AlaRS^R329H [4] = biological target: T1, AlaRS^R329H; assay: Proteolytic digestion assay (trypsin, SDS-PAGE); settings: 3 h
Description: To delve deeper into the impact of selected small molecules on the structural conformation of AlaRS^R329H proteins, a series of proteolysis experiments were conducted. The small molecules were incubated with AlaRS^R329H proteins at room temperature for three hours, followed by SDS-PAGE analysis to evaluate their effects on the distribution of the digestion fragments. […] The AlaRS^R329H proteins (in the presence and absence of Atazanavir sulfate, Tanshinone I, Hederacolchiside A1, and Hexylresorcinol) were incubated with trypsin at different concentrations for 3 h before the reactions were quenched, and the products were separated by SDS-PAGE.

ΔTm (shift between the Tm values of AlaRS^R329H with and without compounds) (AlaRS^R329H [1]) [°C]	Kd (AlaRS^R329H [2]) [µM]	Relative Activity (relative enzyme activity of the first step) (AlaRS^R329H [3]) [%]	Compound	Effect on distribution of digestion fragments / conformation (AlaRS^R329H [4])
4.0	28.6 ± 9.9	96.8	COC(=O)N[C@H](C(=O)N[C@@H](Cc1ccccc1)[C@@H](O)CN(Cc1ccc(-c2ccccn2)cc1)NC(=O)[C@@H](NC(=O)OC)C(C)(C)C)C(C)(C)C [Atazanavir sulfate, reference compound]	minimal effects on the distribution of digestion fragments
4.3	10.1 ± 0.5	69.6	C[C@@H]1O[C@@H](O[C@H]2[C@H](O[C@H]3CC[C@]4(C)[C@H]5CC=C6[C@@H]7CC(C)(C)CC[C@]7(C(=O)O)CC[C@@]6(C)[C@]5(C)CC[C@H]4C3(C)C)OC[C@H](O[C@@H]3O[C@H](CO)[C@@H](O)[C@H](O)[C@H]3O)[C@@H]2O)[C@H](O)[C@H](O)[C@H]1O [Hederacolchiside A1]	slight conformational change
–	26.3 ± 9.9	79.8	CCCCCCc1ccc(O)cc1O [Hexylresorcinol, reference compound]	minimal effects on the distribution of digestion fragments
